Source: US9980945B2, “Benzoisoxazole-substituted compounds as MGLUR4 allosteric potentiators, compositions, and methods of treating neurological dysfunction” (Vanderbilt University, priority 2015, dated 2018)
pEC50: −log10 of the molar value.

Biological target: mGluR4 (UniProt Q14833)
Assay: mGluR4 potentiation assay (EC50 for potentiation at EC20 agonist; fluorometric plate reader, Ca2+ or thallium dye)
Type: cell-based
Settings: potentiation of mGluR4; species of receptor not given
Experimental: The disclosed compounds and compositions can be evaluated for their ability to act as a potentiator of metabotropic glutamate receptor activity, in particular mGluR4 activity, by any suitable known methodology known in the art. For example, Chinese Hamster Ovary (CHO) cells transacted with human mGluR4 or HEK cells co-transfected with rat mGluR4 and the G-protein regulated Inwardly Rectifying Potassium channel (GIRK) were plated in clear bottom assay plates for assay in a Hamamatsu FDSS Fluorometric Plate Reader. The cells were loaded with either a Ca2+-sensitive fluorescent dye or the thallium responsive dye and the plates were washed and placed into a suitable kinetic plate reader. For human mGluR4 assays, a fluorescence baseline was established for 3-5 seconds, the disclosed compounds were then added to the cells, and the response in cells was measured. Approximately two and a half minutes later, a concentration of mGluR4 orthosteric agonist (e.g. glutamate or L-AP4) eliciting approximately 20% (EC20) of the maximal agonist response was added to the cells, and the response was measured. Two minutes later, a concentration of mGluR4 agonist (e.g. glutamate or L-AP4) eliciting 80% (EC80) of the maximal agonist response was added to the cells, and the response was measured. For rat mGluR4/GIRK experiments, a baseline was established for approximately five seconds, disclosed compounds were added, and either an EC20 or EC80 concentration of agonist was added approximately two and one half minutes later. Potentiation of the agonist response of mGluR4 by the disclosed compounds was observed as an increase in response to the EC20 concentration of agonist in the presence of compound compared to the response to agonist in the absence of compound. Similarly, antagonism of the agonist response of mGluR4 by the disclosed compounds was observed as a decrease in response to the EC80 concentration of agonist in the presence of compound compared to the response to agonist in the absence of compound.
The above described assay operated in two modes. In the first mode, a range of concentrations of the disclosed compounds are added to cells, followed by a single fixed concentration of agonist. If the compound acts as a potentiator, an EC50 so value for potentiation and a maximum extent of potentiation by the compound at this concentration of agonist is determined by non-linear curve fitting. If the compound acts as a noncompetitive antagonist, an IC50 value is determined by non-linear curve fitting. In the second mode, several fixed concentrations of the disclosed compounds are added to various wells on a plate, followed by a range in concentrations of agonist for each concentration of disclosed compound. The EC50 values for the agonist at each concentration of compound are determined by non-linear curve fitting. A decrease in the EC50 value of the agonist with increasing concentrations of the sample compound (a leftward shift of the agonist concentration-response curve) is an indication of the degree of mGluR4 potentiation at a given concentration of the sample compound. A decrease in the maximal response of the agonist with increasing concentrations of the sample compounds, with or without a rightward shift in agonist potency, is an indication of the degree of noncompetitive antagonism at mGluR4. The second mode also indicates whether the sample compounds also affect the maximum response to mGluR4 to agonists.

pEC50	SMILES
6.21	C[C@@H](NCc1noc2cc(Nc3n[nH]c4cccnc34)ccc12)C(C)(C)C [Example 79, N-(1H-pyrazolo[4,3-b]pyridin-3-yl)-3-[[[(1R)-1,2,2-trimethylpropyl]amino]methyl]-1,2-benzoxazol-6-amine]
7.01	CCC(CC)c1noc2cc(Nc3n[nH]c4nccnc34)ccc12 [Example 83, 3-(1-ethylpropyl)-N-(1H-pyrazolo[3,4-b]pyrazin-3-yl)-1,2-benzoxazol-6-amine]
6.28	CCC(CC)c1noc2cc(Nc3n[nH]c4ncccc34)ccc12 [Example 84, 3-(1-ethylpropyl)-N-(1H-pyrazolo[3,4-b]pyridin-3-yl)-1,2-benzoxazol-6-amine]
6.88	CCC(CC)c1noc2cc(Nc3n[nH]c4cccnc34)ccc12 [Example 85, 3-(1-ethylpropyl)-N-(1H-pyrazolo[4,3-b]pyridin-3-yl)-1,2-benzoxazol-6-amine]
6.93	CCCC(C)c1noc2cc(Nc3n[nH]c4cccnc34)ccc12 (stereo not drawn) [Example 94, 3-(1-methylbutyl)-N-(1H-pyrazolo[4,3-b]pyridin-3-yl)-1,2-benzoxazol-6-amine]
6.17	CCCC(C)c1noc2cc(Nc3n[nH]c4ncccc34)ccc12 (stereo not drawn) [Example 95, 3-(1-methylbutyl)-N-(1H-pyrazolo[3,4-b]pyridin-3-yl)-1,2-benzoxazol-6-amine]
6.38	CCCC(C)c1noc2cc(Nc3n[nH]c4ncc(F)cc34)ccc12 (stereo not drawn) [Example 96, N-(5-fluoro-1H-pyrazolo[3,4-b]pyridin-3-yl)-3-(1-methylbutyl)-1,2-benzoxazol-6-amine]
6.76	CCCC(C)c1noc2cc(Nc3n[nH]c4nccnc34)ccc12 (stereo not drawn) [Example 98, 3-(1-methylbutyl)-N-(1H-pyrazolo[3,4-b]pyrazin-3-yl)-1,2-benzoxazol-6-amine]
6.72	FC(F)(F)CCc1noc2cc(Nc3n[nH]c4nccnc34)ccc12 [Example 100, N-(1H-pyrazolo[3,4-b]pyrazin-3-yl)-3-(3,3,3-trifluoropropyl)-1,2-benzoxazol-6-amine]
6.67	Cc1noc2ccc(Nc3n[nH]c4ncc(F)cc34)cc12 [Example 104, N-(5-fluoro-1H-pyrazo!o[3,4-b]pyridin-3-yl)-3-methyl-1,2-benzoxazol-5-amine]
7.11	Cc1noc2c(F)cc(Nc3n[nH]c4cccnc34)cc12 [Example 105, 7-fluoro-3-methyl-N-(1H-pyrazolo[4,3-b]pyridin-3-yl)-1,2-benzoxazol-5-amine]
7.64	Cc1noc2c(F)cc(Nc3n[nH]c4nccnc34)cc12 [Example 106, 7-fluoro-3-methyl-N-(1H-pyrazolo[3,4-b]pyrazin-3-yl)-1,2-benzoxazol-5-amine]
7.27	Cc1noc2c(F)cc(Nc3n[nH]c4ncccc34)cc12 [Example 107, 7-fluoro-3-methyl-N-(1H-pyrazolo[3,4-b]pyridin-3-yl)-1,2-benzoxazol-5-amine]
6.38	FC(F)(F)CCc1noc2cc(Nc3n[nH]c4cccnc34)ccc12 [Example 109, N-(1H-pyrazolo[4,3-b]pyridin-3-yl)-3-(3,3,3-trifluoropropyl)-1,2-benzoxazol-6-amine]
7.13	Cn1ncc2cc(Cc3noc4cc(Nc5n[nH]c6cccnc56)ccc34)ccc21 [Example 112, 3-[(1-methylindazol-5-yl)methyl]-N-(1H-pyrazolo[4,3-b]pyridin-3-yl)-1,2-benzoxazol-6-amine]
7.37	Cn1ncc2cc(Cc3noc4cc(Nc5n[nH]c6nccnc56)ccc34)ccc21 [Example 114, 3-[(1-methylindazol-5-yl)methyl]-N-(1H-pyrazolo[3,4-b]pyrazin-3-yl)-1,2-benzoxazol-6-amine]
5.24	c1cnc2c(Nc3ccc4c(CN5CCOCC5)noc4c3)n[nH]c2c1 [Example 133, 3-(morpholinomethyl)-N-(1H-pyrazolo[4,3-b]pyridin-3-yl)-1,2-benzoxazol-6-amine; 2,2,2-trifluoroacetic acid]

pEC50	SMILES
5.58	CCCCC(C)(F)c1noc2cc(Nc3n[nH]c4cccnc34)ccc12 (stereo not drawn) [Example 134, 3-(1-fluoro-1-methyl-pentyl)-N-(1H-pyrazolo[4,3-b]pyridin-3-yl)-1,2-benzoxazol-6-amine]
< 5.00	CCCCC(F)(F)c1noc2cc(Nc3n[nH]c4cccnc34)ccc12 [Example 136, 3-(1,1-difluoropentyl)-N-(1H-pyrazolo[4,3-b]pyridin-3-yl)-1,2-benzoxazol-6-amine]
6.09	CC(NCC(C)(C)C)c1noc2cc(Nc3n[nH]c4cccnc34)ccc12 (stereo not drawn) [Example 137, 3-[1-(2,2-dimethylpropylamino)ethyl]-N-(1H-pyrazolo[4,3-b]pyridin-3-yl)-1,2-benzoxazol-6-amine]
< 5.00	CCCCC(F)(F)c1noc2cc(Nc3n[nH]c4ncccc34)ccc12 [Example 138, 3-(1,1-difluoropentyl)-N-(1H-pyrazolo[3,4-b]pyridin-3-yl)-1,2-benzoxazol-6-amine]
< 5.00	CC(c1ccc(=O)[nH]c1)c1noc2cc(Nc3n[nH]c4cccnc34)ccc12 (stereo not drawn) [Example 139, 5-[1-[6-(1H-pyrazolo[4,3-b]pyridin-3-ylamino)-1,2-benzoxazol-3-yl]ethyl]-1H-pyridin-2-one]
< 5.00	O=C(Cc1noc2cc(Nc3n[nH]c4cccnc34)ccc12)NC1CC(F)(F)C1 [Example 140, N-(3,3-difluorocyclobutyl)-2-[6-(1H-pyrazolo[4,3-b]pyridin-3-ylamino)-1,2-benzoxazol-3-yl]acetamide]
6.56	O=C(Cc1noc2cc(Nc3n[nH]c4nccnc34)ccc12)NC1CC(F)(F)C1 [Example 141, N-(3,3-difluorocyclobutyl)-2-[6-(1H-pyrazolo[3,4-b]pyrazin-3-ylamino)-1,2-benzoxazol-3-yl]acetamide]
< 5.00	O=C(Cc1noc2cc(Nc3n[nH]c4ncccc34)ccc12)NC1CC(F)(F)C1 [Example 142, N-(33-difluorocyclobutyl)-2-[6-(1H pyrazolo[3,4-b]pyridin-3-ylamino)-1,2-benzoxazol-3-yl]acetamide]
5.87	O=C(Cc1noc2cc(Nc3n[nH]c4cccnc34)ccc12)N1CCOCC1 [Example 143, 1-morpholino-2-[6-(1H-pyrazolo[4,3-b]pyridin-3-ylamino)-1,2-benzoxazol-3-yl]ethanone]
5.59	O=C(Cc1noc2cc(Nc3n[nH]c4cccnc34)ccc12)N1CC(F)(F)C1 [Example 144, 1-(3,3-difluoroazetidin-1-yl)-2-[6-(1H-pyrazolo[4,3-b]pyridin-3-ylamino)-1,2-benzoxazol-3-yl]ethanone]
5.84	CC(C)(C)Cc1noc2cc(Nc3n[nH]c4cccnc34)cc(F)c12 [Example 145, 3-(2,2-dimethylpropyl)-4-fluoro-N-(1H-pyrazolo[4,3-b]pyridin-3-yl)-1,2-benzoxazol-6-amine; 2,2,2-trifluoroacetate acid]
5.67	CC(C)(C)C(F)c1noc2cc(Nc3n[nH]c4cccnc34)ccc12 (stereo not drawn) [Example 146, 3-(1-fluoro-2,2-dimethyl-propyl)-N-(1H-pyrazolo[4,3-b]pyridin-3-yl)-1,2-benzoxazol-6-amine]
5.83	CCCCC(F)c1noc2cc(Nc3n[nH]c4cccnc34)ccc12 (stereo not drawn) [Example 147, 3-(1-fluoropentyl)-N-(1H-pyrazolo[4,3-b]pyridin-3-yl)-1H-benzoxazol-6-amine]
< 4.52	CC(C)(C)Cc1noc2cc(Nc3n[nH]c4ncccc34)cc(F)c12 [Example 148, 3-(2,2-dimethylpropyl)-4-fluoro-N-(1H-pyrazolo[3,4-b]pyridin-3-yl)-1,2-benzoxazol-6-amine]
< 5.00	CC(C)(C)Cc1noc2cc(Nc3n[nH]c4nccnc34)cc(F)c12 [Example 149, 3-(2,2-dimethylpropyl)-4-fluoro-N-(1H-pyrazolo[3,4-b]pyrazin-3-yl)-1,2-benzoxazol-6-amine]
< 5.00	CC(C)(C)Cc1noc2cc(Nc3n[nH]c4ncc(F)cc34)cc(F)c12 [Example 150, 3-(2,2-dimethylpropyl)-4-fluoro-N-(5-fluoro-1H-pyrazolo[3,4-b]pyridin-3-yl)-1,2-benzoxazol-6-amine]
